# Reference: ChEMBL document CHEMBL1201862, “PubChem BioAssay data set” (2004)
# Activity calls are given as the source filed them.
# Columns and labels:
# [1] = target: T1, Caspase-3 (Homo sapiens, UniProt P42574); experiment: Dose-response confirmation of uHTS inhibitor hits of Sentrin-Specific Protease 8 in a Caspase-3 Fluorescence assay.; type: functional
# T1 sequence (P42574 whole entry): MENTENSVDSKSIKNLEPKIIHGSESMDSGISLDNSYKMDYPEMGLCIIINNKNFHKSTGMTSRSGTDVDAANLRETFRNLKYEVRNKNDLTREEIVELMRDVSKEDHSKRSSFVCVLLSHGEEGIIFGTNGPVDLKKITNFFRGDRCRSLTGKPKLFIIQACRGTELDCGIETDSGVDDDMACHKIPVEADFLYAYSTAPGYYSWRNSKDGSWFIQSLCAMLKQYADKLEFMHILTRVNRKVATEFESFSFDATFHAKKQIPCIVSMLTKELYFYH
# [2] = target: T2, Sentrin-specific protease 8 (Homo sapiens, UniProt Q96LD8); type: functional
# T2 sequence (Q96LD8 whole entry): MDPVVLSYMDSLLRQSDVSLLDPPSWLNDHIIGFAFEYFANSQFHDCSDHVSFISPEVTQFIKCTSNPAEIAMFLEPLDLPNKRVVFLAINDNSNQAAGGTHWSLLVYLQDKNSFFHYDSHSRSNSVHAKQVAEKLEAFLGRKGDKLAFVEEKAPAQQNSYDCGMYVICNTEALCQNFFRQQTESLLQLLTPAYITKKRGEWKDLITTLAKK
# [3] = target: T2, Sentrin-specific protease 8; type: functional; remark: listed apart in the source
# [4] = target: T3, Low molecular weight phosphotyrosine protein phosphatase (Homo sapiens, UniProt P24666); type: functional; settings: read-out: IC50_Mean
# T3 sequence (P24666 whole entry): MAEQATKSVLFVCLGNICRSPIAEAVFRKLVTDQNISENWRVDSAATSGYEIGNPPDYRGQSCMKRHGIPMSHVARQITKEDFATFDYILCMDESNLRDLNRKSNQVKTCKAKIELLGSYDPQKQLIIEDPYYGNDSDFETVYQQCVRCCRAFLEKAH
# [5] = target: T3, Low molecular weight phosphotyrosine protein phosphatase; type: functional; settings: read-out: IC50_Mean; remark: listed apart in the source
# [6] = HEK293 Cytotoxicity Assay Measured in Cell-Based System Using Plate Reader - 7071-01_Inhibitor_Dose_CherryPick_Activity_Set2.; type: functional
# [7] = system: Cryptococcus neoformans; experiment: PubChem AID 686997; type: functional, organism-based
# [8] = system: HEK293; experiment: viability loss in HEK293T cells – cell-based, ATP luminescence, cherry-pick samples, cytotoxicity control, dose response (AID 687005); type: functional; settings: Homo sapiens;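 further: cells exposed to compound for 48 hours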
# [9] = target: T4, DNA repair and recombination protein RAD54-like (Homo sapiens, UniProt Q92698); experiment: RAD54 Holliday junction migration blockers – biochemical, fluorescence, cherry-picked samples, dose series, confirmation (AID 651657); type: functional
# T4 sequence (Q92698 whole entry): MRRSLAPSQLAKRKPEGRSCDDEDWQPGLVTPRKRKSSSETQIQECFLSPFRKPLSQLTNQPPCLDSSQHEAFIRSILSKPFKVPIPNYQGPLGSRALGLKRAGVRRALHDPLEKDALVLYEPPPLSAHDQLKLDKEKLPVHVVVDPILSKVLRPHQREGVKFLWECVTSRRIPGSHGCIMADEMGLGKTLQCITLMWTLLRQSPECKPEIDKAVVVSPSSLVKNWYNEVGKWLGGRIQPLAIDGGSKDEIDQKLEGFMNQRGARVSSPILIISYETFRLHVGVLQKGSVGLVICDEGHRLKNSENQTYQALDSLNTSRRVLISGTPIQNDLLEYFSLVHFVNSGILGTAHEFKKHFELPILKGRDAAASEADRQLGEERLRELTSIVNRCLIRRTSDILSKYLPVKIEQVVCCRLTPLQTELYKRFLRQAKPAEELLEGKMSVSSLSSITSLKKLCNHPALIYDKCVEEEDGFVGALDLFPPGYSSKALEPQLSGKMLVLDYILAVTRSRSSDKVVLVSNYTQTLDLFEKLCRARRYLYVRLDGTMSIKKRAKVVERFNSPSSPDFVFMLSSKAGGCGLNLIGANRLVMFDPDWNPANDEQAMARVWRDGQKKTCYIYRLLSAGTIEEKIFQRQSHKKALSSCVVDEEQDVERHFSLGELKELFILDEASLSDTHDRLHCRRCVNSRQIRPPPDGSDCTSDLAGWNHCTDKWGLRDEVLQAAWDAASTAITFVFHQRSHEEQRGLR
# [10] = acridine orange displacement from DNA – biochemical, fluorescence polarization, cherry-pick, artefact control for RAD54 inhibitor project, dose response (AID 651673); type: functional
# [11] = target: T5, DNA repair protein RAD52 homolog (Homo sapiens, UniProt P43351); type: functional, biochemical
# T5 sequence (P43351 whole entry): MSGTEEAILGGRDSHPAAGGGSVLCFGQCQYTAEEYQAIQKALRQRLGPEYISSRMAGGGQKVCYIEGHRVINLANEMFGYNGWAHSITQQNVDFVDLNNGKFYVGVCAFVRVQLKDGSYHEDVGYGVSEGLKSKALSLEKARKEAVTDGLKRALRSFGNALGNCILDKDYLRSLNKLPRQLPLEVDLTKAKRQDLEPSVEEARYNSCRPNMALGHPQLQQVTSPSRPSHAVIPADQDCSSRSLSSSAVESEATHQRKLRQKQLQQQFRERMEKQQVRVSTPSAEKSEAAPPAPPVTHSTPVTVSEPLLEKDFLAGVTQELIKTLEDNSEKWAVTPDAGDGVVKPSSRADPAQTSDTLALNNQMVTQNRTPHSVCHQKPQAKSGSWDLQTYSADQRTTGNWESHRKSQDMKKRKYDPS
# [12] = target: T6, Heat shock factor protein 1 (Mus musculus, UniProt P38532); experiment: enhancement of HSF1-driven luciferase signal – cell-based, NIH3T3, luminescence, dose retest, confirmation (AID 435004); type: functional;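 further: stress induced by proteasome inhibitor MG132 added 30 min after compound; luciferase reporter driven by HSF1 response element in NIH3T3 cells; actives raise luminescence as potentiators of the MG132 stress response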
# T6 sequence (P38532 whole entry): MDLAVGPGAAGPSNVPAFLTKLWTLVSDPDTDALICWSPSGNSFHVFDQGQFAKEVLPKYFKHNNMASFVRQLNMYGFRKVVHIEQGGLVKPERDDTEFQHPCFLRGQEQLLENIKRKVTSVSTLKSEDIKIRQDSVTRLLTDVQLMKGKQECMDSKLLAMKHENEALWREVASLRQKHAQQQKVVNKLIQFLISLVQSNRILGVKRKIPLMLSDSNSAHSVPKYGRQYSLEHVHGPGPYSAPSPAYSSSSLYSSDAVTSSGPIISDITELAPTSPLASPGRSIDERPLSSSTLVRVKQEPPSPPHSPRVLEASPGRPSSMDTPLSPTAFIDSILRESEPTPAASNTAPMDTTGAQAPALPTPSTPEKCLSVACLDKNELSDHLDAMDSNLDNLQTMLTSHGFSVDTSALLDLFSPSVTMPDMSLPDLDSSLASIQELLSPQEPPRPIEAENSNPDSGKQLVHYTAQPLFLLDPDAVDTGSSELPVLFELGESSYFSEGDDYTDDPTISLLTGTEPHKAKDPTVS
# [13] = system: BJ; experiment: BJ-TERT fibroblast viability loss – cell-based, RAS-independent, luminescence, dose response (AID 1933); type: functional; settings: Homo sapiens
# [14] = system: BJ; experiment: cells; type: functional, cell-based; settings: Homo sapiens
# [15] = luciferase reporter signal suppression in cells – H4 neuroglioma cells, luminescence, dose response (AID 1990); type: functional, cell-based
# [16] = Luminescence Cell-Based Dose Response HTS to Identify Inhibitors of 5'UTR Stem-Loop Driven Prion Protein mRNA Translation in H4 Neuroglioblastoma Cells. [Related pubchem assays: 1827 (Project Summary), 1813 (Primary HTS)]; type: functional
# [17] = target: Beta Lactamase (Pseudomonas aeruginosa, UniProt Q932Y6); experiment: BLA reporter interference, concentration series – BLA reporter cells, FRET fluorescence, artefact control for NOD2-RIPK2 interaction inhibitor project, dose response (AID 651552); type: functional, cell-based
# Sequence of Beta Lactamase (Q932Y6 whole entry): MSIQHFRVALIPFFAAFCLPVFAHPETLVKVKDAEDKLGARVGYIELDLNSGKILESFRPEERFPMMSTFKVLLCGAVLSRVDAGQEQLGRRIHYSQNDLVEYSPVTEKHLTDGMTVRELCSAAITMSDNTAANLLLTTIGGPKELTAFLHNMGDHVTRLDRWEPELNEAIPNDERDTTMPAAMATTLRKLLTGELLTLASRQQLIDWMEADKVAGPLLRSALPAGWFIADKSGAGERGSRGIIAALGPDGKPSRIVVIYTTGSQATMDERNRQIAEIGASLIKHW
# [18] = system: BJ; experiment: BJ-TERT-LT-ST fibroblast viability loss – cell-based, RAS-independent, luminescence, dose response (AID 1935); type: functional; settings: Homo sapiens;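 further: BJ fibroblasts immortalized with TERT plus LT and ST oncogenes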
# [19] = Fluorescence-based cell-based high throughput dose response assay for inhibitors of the interaction of nucleotide-binding oligomerization domain containing 2 (NOD2) and the receptor-interacting serine-threonine kinase 2 (RIPK2).; type: functional; settings: Homo sapiens
# [20] = alpha-synuclein stem-loop luciferase translation blockers – H4 neuroglioma cells, luminescence, confirmation (AID 1988); type: functional, cell-based
# [21] = system: BJ; experiment: growth inhibition of engineered Ras-driven BJ cells – cell-based, alamar blue fluorescence, cherrypicked samples, dose response (AID 2631); type: functional; settings: Homo sapiens;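 further: confirmatory dose-response assay in RAS-dependent BJ fibroblasts engineered with TERT, LT and ST, with cytotoxicity read by fluorescence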
# [22] = DRD fibroblast viability loss – cell-based, non-viral oncogenic, luminescence, dose response (AID 1934); type: functional; settings: Homo sapiens
structure (smiles),measurement,setting,value
COc1ccc(NC(=O)[C@@H]2[C@@H]3C(=O)N(C4CCCCC4)C(=O)[C@@H]3C3c4ccccc4C=CN32)cc1 (stereo partly drawn),IC50,[1],10.8 µM (active)
same,IC50,[2],16.3 µM (active)
same,IC50,[3],4.79 µM (active)
COCCNc1nc(NCc2cnc(C)cn2)c2sccc2n1,IC50,[4],20.4 µM (inactive)
same,IC50,[5],13.5 µM (active)
COC(=O)C1=C(C)N(Cc2ccc(F)cc2)C(=S)NC1c1cccc(Br)c1 (stereo not drawn),AC50,[6],6.17 µM (active)
same,AC50,[7],36.7 µM (active)
same,AC50,[8],6.17 µM (active)
c1cncc(Nc2c3ccccc3nc3ccccc23)c1,AC50,[9],12.8 µM (active)
same,AC50,[10],49.5 µM (active)
same,AC50,[11],7.23 µM (active)
COc1ccc(/N=C2\S/C(=C\c3ccc(Cl)c([N+](=O)[O-])c3)C(=O)N2CCN(C)C)cc1,EC50,[12],7.54 µM (active)
same,EC50,[13],3.18 µM (inconclusive)
same,EC50,[14],9.3 µM (inconclusive)
same,EC50,[15],> 120 µM (not active)
same,EC50,[16],8.46 µM (active)
same,AC50,[11],10.8 µM (active)
same,IC50,[17],49.7 µM (inactive)
same,EC50,[18],3.03 µM (inconclusive)
same,IC50,[19],1.5 µM (active)
same,EC50,[20],8.97 µM (active)
same,EC50,[21],1.16 µM (active)
same,EC50,[22],2.8 µM (inconclusive)
